This is an account of results in US20170129915A1, “THERAPEUTIC AGENT FOR DISEASES ASSOCIATED WITH NERVE AXON DYSFUNCTION, INCLUDING THERAPEUTIC AGENT FOR ALZHEIMER'S DISEASE” (Resilio Company Limited, priority 2014, published 2017).

Experiment [1] deals with spinal cord injury (SCI) model mice. The experiment can be described thus: Evaluation of hindlimb motor function based on BMS and TMS. The class given is in vivo. The settings on record: suspension in sesame oil, oral once a day, 0.1 μmol/kg·day, 14 days, vs sesame oil alone, FIGS. 4A and 4B. On the procedure: Contusion injury was induced in 8-week-old female ddY mice (SLC) by the following procedure to give spinal cord injury (SCI) model mice. The ddY mice were maintained with free access to food and water in a controlled environment (22±2° C., 50±5% humidity, 12-h light/dark cycle starting at 7:00 am) Contusion injury was induced by exposing the lumbar vertebrae of each mouse in accordance with a conventional procedure, then placing the mouse in a stereotaxic apparatus (Narishige), and dropping a 6.5-g weight onto the first lumbar vertebrae (L1) from a height of 2 cm once. The mouse was then subjected to surgical procedures such as suture in a conventional manner. One hour after the induction of the contusion injury, the mice were randomly selected and divided into test groups and were subjected to the administration test described later in Example 10 and Comparative Example 5.
The locomotion behavior in the open field was evaluated using the Basso Mouse Scale (BMS) (see, for example, Engesser-Cesar C, Anderson A J, Basso D M et al., (2005), Voluntary wheel running improves recovery from a moderate spinal cord injury, J Neurotrauma 22: 157-171), which was a general standard for the evaluation of the hindlimb motor function of spinal cord injury model mice, and a 0-30-point Toyama Mouse Scale (TMS), which was a modified BMS established by the inventors for better test accuracy. […]

Experiment [2] concerns normal mice (ddY). The experiment can be described thus: Object location memory test in normal mice (Reference Test 2). The class given is in vivo. The settings on record: 10 μmol/kg·day, 5 days, ddY male 6 weeks, interval 48 hours. As for the experimental part: ddY Mice were obtained from Japan SLC (Hamamatsu, Japan) In the Examples below, 6-week-old male ddY mice were used as normal mice. All mice were housed with free access to food and water and were kept in a controlled environment at 22±2° C., 50±5% humidity, and 12-h light/dark cycle starting at 7:00 am.
Testing was carried out in a dimly illuminated room (about 100 lx). An appropriate time interval between a training session and a test session was set based on the results of a preliminary test using another group of mice. The object location memory test utilizes animals' habit of showing interest in a novel object. The two opposite walls of a four-walled open-field box for the test had wall coverings with a distinct pattern. […] In the test session, one of the objects was moved to a different location, and the mice were allowed to explore freely for 10 minutes. The increase of the number of times a mouse preferentially explored the identical but relocated object was used as an index of the location memory. That is, the test session determines whether a mouse remembers the previous exposure to an object in the training session. In the Examples below, the ratio (%) of the number of times a mouse explored the object after relocation to the total exploration time was calculated as a preference index. […]

Experiment [3] relates to normal mice (ddY). The experiment can be described thus: Object recognition memory test in normal mice. Format: in vivo. The settings on record: Example 12: suspension in sesame oil, oral, 0.1 μmol/kg·day, 4 days; ddY male and female 9 weeks; interval 48 hours; FIG. 10. As for the experimental part:
[…] All mice were housed with free access to food and water and were kept in a controlled environment at 22±2° C., 50±5% humidity, and 12-h light/dark cycle starting at 7:00 am.
The next day of the measurement of spontaneous motor activity, an object recognition memory test was performed as described in Joyashiki, E. et al., Int J Neurosci, 121, 181-190, 2011 and Tohda, C. et al., Int J Neurosci, 121, 641-648, 2011, reported by the inventors and others. Testing was carried out in a dimly illuminated room (about 100 lx). An appropriate time interval between a training session and a test session was set based on the results of a preliminary test using another group of mice. The object recognition memory test utilizes animals' habit of showing interest in a novel object. The inner walls of the open-field box for the test had no marks. In the training session, two identical objects were placed in the field, and mice were allowed to explore freely for 10 minutes. In the test session, the location of the objects was not changed, but one of the objects was replaced with a novel object, and the mice were allowed to explore freely for 10 minutes. […] In the Examples below, the ratio (%) of the number of times a mouse explored the novel object to the total exploration time was calculated as a preference index. […]

The next experiment deals with normal or AD model mice. The settings on record: intraperitoneal administration; cited from earlier work.

As to `C[C@@H]1CC[C@@]2(OC1)O[C@H]1C[C@H]3[C@@H]4CC=C5C[C@@H](F)CC[C@]5(C)[C@H]4CC[C@]3(C)[C@H]1[C@@H]2C` [Dios-F, (3β,25R)-3-fluorospirost-5-ene], the “hindlimb motor function (BMS and TMS scores)” value in experiment [1] is on record as “significantly improved”.

As to `C[C@@H]1CC[C@@]2(OC1)O[C@H]1C[C@H]3[C@@H]4CC=C5C[C@@H](O)CC[C@]5(C)[C@H]4CC[C@]3(C)[C@H]1[C@@H]2C` [diosgenin, Diosgenin], the “memory enhancing effect, object location memory test” value is on record as “no memory enhancing effect” in the experiment on normal mice (ddY) [2] (Reference Example 1: dissolved in aqueous solvent (ethanol/5% glucose), oral, FIG. 6A) and “a significant memory enhancing effect” in the experiment on normal mice (ddY) [2] (Reference Example 2: dissolved in aqueous solvent, intraperitoneal, FIG. 6B). Also, in the experiment on normal mice (ddY) [3], the object recognition memory result is on record as “a significant enhancement of the object recognition memory”. In addition, in the experiment on normal or AD model mice, the memory result is “enhanced the memory”.
